Test results as given in patent publication US20070009597A1, “Active substance combination comprising a compound with npy receptor affinity and a compound with 5-ht6 receptor affinity” (LABORATORIOS DEL DR. ESTEVE S.A., priority 2003, published 2007).
Where a name gives a salt, the structure may show the parent alone. Read-outs that look alike come from different tables or passages of the source.

Biological target: T1, recombinant human 5HT6 receptor (Homo sapiens, UniProt P50406)
T1 construct: purchased Receptor Biology; host or cells: HEK-293
T1 sequence (P50406 whole entry): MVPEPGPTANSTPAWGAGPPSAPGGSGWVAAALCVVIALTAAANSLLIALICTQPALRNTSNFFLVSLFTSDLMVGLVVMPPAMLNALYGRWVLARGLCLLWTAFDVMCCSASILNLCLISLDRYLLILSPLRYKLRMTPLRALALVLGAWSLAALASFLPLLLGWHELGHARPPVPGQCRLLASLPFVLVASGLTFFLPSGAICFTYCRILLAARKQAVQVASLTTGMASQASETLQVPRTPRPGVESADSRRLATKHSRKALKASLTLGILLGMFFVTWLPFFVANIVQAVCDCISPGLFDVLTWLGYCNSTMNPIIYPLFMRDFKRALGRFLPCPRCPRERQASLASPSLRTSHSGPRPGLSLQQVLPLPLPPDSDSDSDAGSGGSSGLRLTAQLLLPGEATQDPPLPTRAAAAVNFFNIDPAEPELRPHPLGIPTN
Assay: Binding to the 5HT6 serotonin receptor ([3H]-LSD, HEK-293 cell membranes)
Conditions: for inhibition at 1 µM: read-out: % Inhibition 10^−6 M
Experimental: Binding to the 5HT6 Serotonin Receptor
The respective part of the literature descriptions is incorporated here by reference and form part of the disclosure. […] The assays are carried out in triplicate.

[1] = 10^−6 M, table 2b, compounds of general formula (Ib)
[2] = 10^−6 M, table 1f, compounds of general formula (If)
[3] = table 1f, compounds of general formula (If)
[4] = table 1c, compounds of general formula (Ic)
[5] = 10^−6 M, table 1d, compounds of general formula (Id)
[6] = table 1e, compounds of general formula (Ie)
[7] = 10^−6 M, table 1c, compounds of general formula (Ic)
[8] = table 1h, compounds of general formula (Ih)

CN(C)c1cccc2c(S(=O)(=O)N3CCC(N4C(=O)OCc5ccccc54)CC3)cccc12 [Example 8b, 1-[1-(5-Dimethylamino-naphthyl-1-sulfonyl)-piperidine-4-yl]-1,4-dihydro-benzo[d][1,3]oxazine-2-one]
inhibition at 1 µM [1]: 68%

Cc1cccc2c1N(C1CCN(S(=O)(=O)c3cccc4c(N(C)C)cccc34)CC1)C(=O)OC2 [Example 7b, 1-[1-(5-Dimethylamino-naphthyl-1-sulfonyl)-piperidine-4-yl]-8-Methyl-1,4-dihydro-benzo[d][1,3]oxazine-2-one]
inhibition at 1 µM [1]: 88%

CN(C)CCn1ccc2ccc(NS(=O)(=O)c3cccc4ccccc34)cc21 [Example 3f, N-[1-(2-Dimethylaminoethyl)-1H-indol-6-yl]-naphthalene-1-sulfonamide]
% Inhibition 10^−6 M [2]: 95.3% | Ki [3]: 19.8 nM

CN(C)CCn1ccc2ccc(NS(=O)(=O)CCc3cccc4ccccc34)cc21 [Example 6f, N-[1-(2-Dimethylaminoethyl)-1H-indol-6-yl]-2-(naphthalene-1-yl)-ethanesulfonamide]
inhibition at 1 µM [2]: 94.5% | Ki [3]: 74.5 nM

CCN(CC)CCc1c[nH]c2ccc(NS(=O)(=O)c3ccc4ccccc4c3)cc12 [Example 17c, N-[3-(2-diethylaminoethyl)-1H-indol-5-yl]naphthalene-2-sulphonamide]
Ki [4]: 5.3 nM

CN(C)CCn1ccc2ccc(NS(=O)(=O)c3ccc(Oc4ccccc4)cc3)cc21 [Example 7f, N-[1-(2-Dimethylaminoethyl)-1H-indol-6-yl]-4-phenoxybenzenesulfonamide]
% Inhibition 10^−6 M [2]: 95.1% | Ki [3]: 119 nM

CN(C)CCn1ccc2c(NS(=O)(=O)c3cccc4ccccc34)cccc21 [Example 3d, N-[1-(2-dimethylaminoethyl)-1H-indole-4-yl]-naphtalene-1-sulfonamide]
% Inhibition 10^−6 M [5]: 94.8%

O=C1OCc2ccccc2N1C1CCN(S(=O)(=O)c2cccc3ccccc23)CC1 [Example 1b, 1-[1-(Naphthyl-1-sulfonyl)-piperidine-4-yl]-1,4-dihydro-benzo[d][1,3]oxazine-2-one]
Ki: 51.7 nM | inhibition at 1 µM: 98.1 ± 4%

CN(C)CCn1ccc2cc(NS(=O)(=O)c3cc(Cl)c(Cl)s3)ccc21 [Example 20e, N-[1-(2-dimethylaminoethyl)-1H-indole-5-yl]-4,5-dichlorothiophene-2-sulfonamide]
Ki [6]: 84.8 nM

CCN(CC)CCc1c[nH]c2ccc(NS(=O)(=O)c3cc(Cl)cc(Cl)c3)cc12 [Example 4c, N-[3-(2-diethylaminoethyl)-1H-indol-5-yl]-3,5-dichlorobenzenesulphonamide]
Ki [4]: 9.3 nM

CN(C)CCn1ccc2ccc(NS(=O)(=O)c3cc(Cl)cc(Cl)c3)cc21 [Example 8f, N-[1-(2-Dimethylaminoethyl)-1H-indol-6-yl]-3,5-dichlorobenzenesulfonamide]
inhibition at 1 µM [2]: 86.9% | Ki [3]: 159 nM

Cc1c(S(=O)(=O)N2CCC(N3C(=O)OCc4ccccc43)CC2)sc2ccc(Cl)cc12 [Example 3b, 1-[1-(5-chloro-3-methyl-benzo[b]tiophene-2-sulfonyl)-piperidine-4-yl]-1,4-dihydro-benzo[d][1,3]oxazine-2-one]
Ki: 107 nM

O=C1OCc2ccccc2N1C1CCN(S(=O)(=O)c2cccc3cccnc23)CC1 [Example 5b]
Ki: 152 nM

CN(C)CCn1ccc2c(NS(=O)(=O)c3ccc(-c4ccccc4)cc3)cccc21 [Example 4d, N-[1-(2-dimethylaminoethyl)-1H-indole-4-yl]-4-phenylbenzenesulfonamide]
inhibition at 1 µM [5]: 46.6%

CN(C)CCn1ccc2cc(NS(=O)(=O)c3cccc(Br)c3)ccc21 [Example 13e, N-[1-(2-dimethylaminoethyl)-1H-indole-5-yl]-3-bromobenzenesulfonamide]
Ki [6]: 82.5 nM

Cc1cccc2c1N(C1CCN(S(=O)(=O)c3cccc4ccccc34)CC1)C(=O)OC2 [Example 4b, 8-Methyl-1-[1-(naphthyl-1-sulfonyl)-piperidine-4-yl]-1,4-dihydro-benzo[d][1,3]oxazine-2-one]
Ki: 246 nM

CN(C)CCn1ccc2cc(NS(=O)(=O)c3cccc4ccccc34)ccc21 [Example 3e, N-[1-(2-dimethylaminoethyl)-1H-indole-5-yl]-naphthalene-1-sulfonamide]
Ki [6]: 94.2 nM

CCN(CC)CCc1c[nH]c2ccc(NS(=O)(=O)c3cccc4ccccc34)cc12 [Example 3c, Hydrochloride N-[3-(2-diethylaminoethyl)-1H-indol-5-yl]naphthalene-1-sulphonamide]
Ki [4]: 3.5 nM

CN(C)CCn1ccc2ccc(NS(=O)(=O)c3ccc4ccccc4c3)cc21 [Example 2f, N-[1-(2-Dimethylaminoethyl)-1H-indol-6-yl]-naphthalene-2-sulfonamide]
Ki: 41.2 nM | inhibition at 1 µM: 97.7%

CN1CCC(c2c[nH]c3ccc(NS(=O)(=O)c4ccc(-c5ccccc5)cc4)cc23)CC1 [Example 15c, N-[3-(1-methylpiperidin-4-yl)-1H-indol-5-yl]-4-phenylbenzenesulphonamide]
% Inhibition 10^−6 M [7]: 97.4 ± 0.8% | Ki [4]: 6.8 nM

CCN(CC)CCc1c[nH]c2ccc(NS(=O)(=O)c3ccc(-c4ccccc4)cc3)cc12 [Example 5c, N-[3-(2-diethylaminoethyl)-1H-indol-5-yl]-4-phenylbenzenesulphonamide]
Ki [4]: 1 nM

CN(C)CCn1ccc2cc(NS(=O)(=O)c3cc(Cl)cc(Cl)c3)ccc21 [Example 12e, N-[1-(2-dimethylaminoethyl)-1H-indole-5-yl]-3,5-dichlorobenzenesulfonamide]
Ki [6]: 105 nM

CN(C)CCn1ccc2cc(NS(=O)(=O)c3c(Cl)nc4sccn34)ccc21 [Example 11e, N-[1-(2-dimethylaminoethyl)-1H-indole-5-yl]-6-chloroimidazo[2,1-b]thiazole-5-sulfonamide]
Ki [6]: 1.89 nM

O=S(=O)(C1CCCCC1)n1cc(C2=CCN3CCCC3C2)c2cc(F)ccc21 (stereo not drawn) [Example 4h, 1-cyclohexanesulfonyl-5-fluoro-3-(1,2,3,5,8,8a-hexahydro-indolizine-7-yl)-1H-indole]
Ki [8]: 191 nM

CN1CC=C(c2cn(S(=O)(=O)C3CCCCC3)c3ccc(N)cc23)CC1 [Example 3h, 5-amino-1-cyclohexanesulfonyl-3-(1-methyl-1,2,3,6-tetrahydropyridine-4-yl)-1H-indole]
Ki [8]: 55.1 nM

Cc1cccc2c1N(C1CCN(S(=O)(=O)c3cccc4cccnc34)CC1)C(=O)OC2 [Example 6b, 8-Methyl-1-[1-(quinolinyl-8-sulfonyl)-piperidine-4-yl]-1,4-dihydro-benzo[d][1,3]oxazine-2-one]
Ki (table 2b, compounds of general formula (Ib)): 166 nM

CN(C)CCn1ccc2c(NS(=O)(=O)c3ccc4ccccc4c3)cccc21 [Example 2d, N-[1-(2-dimethylaminoethyl)-1H-indole-4-yl]-naphtalene-2-sulfonamide]
% Inhibition 10^−6 M [5]: 104.3%

CN1CCC(c2c[nH]c3ccc(NS(=O)(=O)c4cccc5ccccc45)cc23)CC1 [Example 13c, N-[3-(1-methylpiperidin-4-yl)-1H-indol-5-yl]naphthalene-1-sulphonamide hydrochloride]
Ki: 4.7 nM

Cc1c(S(=O)(=O)Nc2cccc3c2ccn3CCN(C)C)sc2ccc(Cl)cc12 [Example 1d, N-[1-(2-dimethylaminoethyl)-1H-indole-4-yl]-5-chloro-3-methylbenzo[b]thiophene-2-sulfonamide]
inhibition at 1 µM [5]: 83.9%

CN(C)CCn1ccc2ccc(NS(=O)(=O)c3c(Cl)nc4sccn34)cc21 [Example 4f, N-[1-(2-Dimethylaminoethyl)-1H-indol-6-yl]-6-chloroimidazo[2,1-b]thiazole-5-sulfonamide]
inhibition at 1 µM [2]: 90.8% | Ki [3]: 55.2 nM

CN(C)CCn1ccc2cc(NS(=O)(=O)c3cccc4c(Cl)cccc34)ccc21 [Example 4e, N-[1-(2-dimethylaminoethyl)-1H-indole-5-yl]-5-chloronaphthalene-1-sulfonamide]
Ki [6]: 112 nM

CN1CCC(c2c[nH]c3ccc(NS(=O)(=O)c4cccc5cccnc45)cc23)CC1 [Example 16c, N-[3-(1-methylpiperidin-4-yl)-1H-indol-5-yl]quinoline-8-sulphonamide]
% Inhibition 10^−6 M [7]: 94.4 ± 8.6% | Ki [4]: 21.2 nM

Cc1c(S(=O)(=O)Nc2ccc3ccn(CCN(C)C)c3c2)sc2ccc(Cl)cc12 [Example 1f, N-[1-(2-Dimethylaminoethyl)-1H-indol-6-yl]-5-chloro-3-methylbenzo[b]thiophene-2-sulfonamide]
inhibition at 1 µM [2]: 98.6% | Ki [3]: 90.2 nM

CN1CC=C(c2cn(S(=O)(=O)C3CCCCC3)c3ccc([N+](=O)[O-])cc23)CC1 [Example 1h, 1-cyclohexanesulfonyl-3-(1-methyl-1,2,3,6-tetrahydropyridine-4-yl)-5-nitro-1H-indole]
inhibition at 1 µM (10^−6 M, table 1h, compounds of general formula (Ih)): 59.8 ± 3%

CN(C)CCn1ccc2c(NS(=O)(=O)c3ccc(Oc4ccccc4)cc3)cccc21 [Example 6d, N-[1-(2-dimethylaminoethyl)-1H-indole-4-yl]-4-phenoxybenzenesulfonamide]
% Inhibition 10^−6 M [5]: 55.8%

CN(C)CCn1ccc2ccc(NS(=O)(=O)c3ccc(-c4ccccc4)cc3)cc21 [Example 5f, N-[1-(2-Dimethylaminoethyl)-1H-indol-6-yl]-4-phenylbenzenesulfonamide]
inhibition at 1 µM [2]: 93.4%

CN1CCC(c2c[nH]c3ccc(NS(=O)(=O)c4ccc(Cl)s4)cc23)CC1 [Example 14c, N-[3-(1-methylpiperidin-4-yl)-1H-indol-5-yl]-5-chlorothiophene-2-sulphonamide]
% Inhibition 10^−6 M [7]: 95.7 ± 3.4% | Ki [4]: 24.3 nM
